Experimental data published in PubChem BioAssay AID1963849 (Molecular Pharmacology Branch, DTP, NCI, 2024).

Tested on: 299254-011-R-J1-PDC complex spheroid viability
Assay: Anticancer human tumor 299254-011-R-J1-PDC patient-derived melanoma cell line growth inhibition [POLQ]
Conditions: for IC50: curve of first compound; for viability, T/C: stronger effect = lower value
Experimental: Multicellular complex tumor spheroid response to Polymerase (POL) inhibitors (novobiocin, ART-558, RP6685) in combination with a variety of drugs and investigational agents in selected tumor cell lines
The POL inhibitors (novobiocin, ART-558, and RP6685) were evaluated both individually and in combination with standard of care and investigational anticancer small molecules within a complex spheroid model of solid tumors. . Complex spheroids include a stromal component modeled by human endothelial cells (HUVEC) and fibroblasts modeled by human mesenchymal stem cells (MSCs). The concentration ranges selected for each drug and investigational agent were based upon clinically achievable concentrations if the clinical Cmax of the agent was known.
Compounds. The drugs and investigational agents: novobiocin (NSC847541), ART-558 (NSC835418), RP-6685 (NSC848927), peposertib (NSC802822), ceralasertib (NSC780249), elimusertib (NSC800525), camonsertib (NSC841442), AZD-1390 (NSC803789), olaparib (NSC753686), talazoparib (NSC767125), rucaparib (NSC756644), sotorasib (NSC818433), MRTX-1133 (NSC836407), SN-38 (NSC673596), topotecan (NSC609699), epotoside (NSC141540), doxorubicin (NSC123127), gemcitabine (NSC613327), 5-fluorouracil (NSC19893), paclitaxel (NSC125973), vemurafenib (NSC761431), MSA-2 (NSC828583), SN-011 (NSC837082), adavosertib (NSC754352), prexasertib (NSC758257), carboplatin (NSC241240) and oxaliplatin (NSC266046), were obtained from the National Cancer Institute (NCI) Developmental Therapeutics Program Chemical Repository (21). The FDA-approved anticancer drug set is available from the Developmental Therapeutics Program at https://dtp.cancer.gov/organization/dscb/obtaining/. […] The stock solutions were prepared in dimethyl sulfoxide (DMSO, Sigma-Aldrich, St. Louis, MO, cat. D2650), except for the platinum compounds which were prepared in saline (Quality Biological, Gaithersburg, MD, cat. 114-055-101), at 800-fold the tested concentration and stored at -70 degrees C prior to their use. All drugs and investigational agents were tested over a range starting from a high concentration at or near the clinical Cmax and decreasing in half-log increments. If the clinical Cmax for an agent had not been determined, the highest concentration tested was 10 microM, except for SN-38, which was tested at a high concentration of 1 microM.
Cell Culture. All cells were maintained in an incubator at 37 degrees C and 5% CO2 with 95% humidity. The PDC lines were cultured according to standard operating procedures established by the NCI PDMR (https://pdmr.cancer.gov). Table 3 of the manuscript, lists the cell lines along with the number of the three cell types plated to form the mct-spheroids and media for tumor cell growth. After thawing, all PDC lines, except 997537-175-T-J1-PDC and 415267-285-R-J2-PDC, were cultured in Matrigel-coated flasks prepared with a working solution of 1X Ham's F-12 nutrient mix, without supplementation (Thermo Fisher Scientific, cat. 11765054), 100 U/mL penicillin-streptomycin (Thermo Fisher Scientific, cat. 15140122), and 2.5% Matrigel (Corning Inc., Corning, NY, cat. 354248) for the first three passages. The two PDC lines 997537-175-T-J1-PDC and 415267-285-R-J2-PDC were cultured on uncoated flasks. The 857933-349-R-J2-PDC line was cultured in 6C/Colon 1B media containing advanced DMEM/F-12 (Thermo Fisher Scientific, cat. 12634028), 10 mM HEPES (Thermo Fisher Scientific, cat. 15630080), 1X GlutaMAX supplement (Thermo Fisher Scientific, cat. 35050061), 0.1 mg/mL primocin (InvivoGen, San Diego, CA, cat. ant-pm-2), 10% defined fetal bovine serum, heat inactivated (HyClone Laboratories Inc., Logan, UT, cat. SH30070.03HI), 50% L-WRN conditioned media (ATCC, cat. CRL-3276), 1.25 mM N-Acetyl-L-cysteine (Sigma-Aldrich, cat. A9165), 10 mM nicotinamide (Sigma-Aldrich, cat. N0636), 1X B-27 supplement (Thermo Fisher Scientific, cat. 17504044), 1X N-2 supplement (Thermo Fisher Scientific, cat. […]
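Note: spheroids exposed to drugs for one week before measurement.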
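Throughout, for viability, T/C: percent viability relative to DMSO vehicle control taken as 100%.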

Structure (SMILES): CC(=O)O[C@H]1C(=O)[C@@]2(C)[C@H]([C@H](OC(=O)c3ccccc3)[C@]3(O)C[C@H](OC(=O)[C@H](O)[C@@H](NC(=O)c4ccccc4)c4ccccc4)C(C)=C1C3(C)C)[C@]1(OC(C)=O)CO[C@@H]1C[C@@H]2O + COC1C(OC(N)=O)C(O)C(Oc2ccc3c(O)c(NC(=O)c4ccc(O)c(CC=C(C)C)c4)c(=O)oc3c2C)OC1(C)C
- IC50 (second compound 0.0316 µM): 108 nM
- IC50 (second compound 0.1 µM): 70.7 nM
- IC50 (second compound 0.316 µM): 71.9 nM
- IC50 (second compound 1 µM): 71.9 nM
- IC50 (second compound 3.16 µM): 124 nM
- IC50 (second compound 10 µM): 90.2 nM
- viability, T/C (second compound 0.0316 µM, first compound 0.00949 µM): 77.3%
- viability, T/C (second compound 0.0316 µM, first compound 0.03 µM): 75.9%
- viability, T/C (second compound 0.0316 µM, first compound 0.0949 µM): 53.4%
- viability, T/C (second compound 0.0316 µM, first compound 0.3 µM): 23.2%
- viability, T/C (second compound 0.0316 µM, first compound 0.949 µM): 21.8%
- viability, T/C (second compound 0.0316 µM, first compound 3 µM): 15.9%
- viability, T/C (second compound 0.1 µM, first compound 0.00949 µM): 97%
- viability, T/C (second compound 0.1 µM, first compound 0.03 µM): 63.3%
- viability, T/C (second compound 0.1 µM, first compound 0.0949 µM): 46.7%
- viability, T/C (second compound 0.1 µM, first compound 0.3 µM): 30.9%
- viability, T/C (second compound 0.1 µM, first compound 0.949 µM): 21.4%
- viability, T/C (second compound 0.1 µM, first compound 3 µM): 16%
- viability, T/C (second compound 0.316 µM, first compound 0.00949 µM): 101%
- viability, T/C (second compound 0.316 µM, first compound 0.03 µM): 73.1%
- viability, T/C (second compound 0.316 µM, first compound 0.0949 µM): 41.4%
- viability, T/C (second compound 0.316 µM, first compound 0.3 µM): 29.5%
- viability, T/C (second compound 0.316 µM, first compound 0.949 µM): 21.2%
- viability, T/C (second compound 0.316 µM, first compound 3 µM): 20%
- viability, T/C (second compound 1 µM, first compound 0.00949 µM): 95.1%
- viability, T/C (second compound 1 µM, first compound 0.03 µM): 70%
- viability, T/C (second compound 1 µM, first compound 0.0949 µM): 43.8%
- viability, T/C (second compound 1 µM, first compound 0.3 µM): 27.1%
- viability, T/C (second compound 1 µM, first compound 0.949 µM): 22.2%
- viability, T/C (second compound 1 µM, first compound 3 µM): 18.3%
- viability, T/C (second compound 3.16 µM, first compound 0.00949 µM): 90.7%
- viability, T/C (second compound 3.16 µM, first compound 0.03 µM): 68.3%
- viability, T/C (second compound 3.16 µM, first compound 0.0949 µM): 61.3%
- viability, T/C (second compound 3.16 µM, first compound 0.3 µM): 31.5%
- viability, T/C (second compound 3.16 µM, first compound 0.949 µM): 22.6%
- viability, T/C (second compound 3.16 µM, first compound 3 µM): 16.8%
- viability, T/C (second compound 10 µM, first compound 0.00949 µM): 86.6%
- viability, T/C (second compound 10 µM, first compound 0.03 µM): 84.9%
- viability, T/C (second compound 10 µM, first compound 0.0949 µM): 47.1%
- viability, T/C (second compound 10 µM, first compound 0.3 µM): 28%
- viability, T/C (second compound 10 µM, first compound 0.949 µM): 21.6%
- viability, T/C (second compound 10 µM, first compound 3 µM): 17.6%
